Source: patent US9023789B2, “Amylin analogs and pharmaceutical compositions thereof” (Novo Nordisk A/S, priority 2012, dated 2015)
Numbered stars: 1 amine (or outer) side, 2 acyl side, 3 side chain; on linkers, the order of the positions; unused ones are H or OH. Bridge positions count the residues as written; N and C are the ends. Side chains are listed from the residue outwards. Peptide text beside a SMILES is read from it. * marks the point of attachment. C20 diacid = O=C(O)CCCCCCCCCCCCCCCCCCC(=O)*; γGlu = O=C(O)[C@H](CCC(=O)[*:2])N[*:1]; AEEA = NCCOCCOCC(=O)O

Biological target: T1, rat amylin receptor (rat calcitonin receptor + rat RAMP 3) (Rattus norvegicus, UniProt P32214+Q9JJ73)
T1 construct: expressed in transfected cells; host or cells: BHK tk'ts 13 (transient, FuGENE 6), membranes
T1 sequence (P32214 25-479 isoform P32214-2 limits assumed): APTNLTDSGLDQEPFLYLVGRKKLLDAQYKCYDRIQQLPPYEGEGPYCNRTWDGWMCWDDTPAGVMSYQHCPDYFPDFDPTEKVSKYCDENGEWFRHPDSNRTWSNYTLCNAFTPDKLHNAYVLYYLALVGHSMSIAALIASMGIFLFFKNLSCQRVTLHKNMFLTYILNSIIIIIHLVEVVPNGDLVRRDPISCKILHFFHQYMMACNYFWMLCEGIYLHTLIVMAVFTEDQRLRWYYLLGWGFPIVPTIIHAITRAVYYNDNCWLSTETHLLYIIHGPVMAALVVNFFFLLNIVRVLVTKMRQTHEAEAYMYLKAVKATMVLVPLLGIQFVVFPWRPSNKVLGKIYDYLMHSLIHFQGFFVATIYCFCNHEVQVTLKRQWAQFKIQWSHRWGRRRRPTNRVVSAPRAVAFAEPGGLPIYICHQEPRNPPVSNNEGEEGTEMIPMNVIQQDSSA
T1 sequence (Q9JJ73 23-147 partner): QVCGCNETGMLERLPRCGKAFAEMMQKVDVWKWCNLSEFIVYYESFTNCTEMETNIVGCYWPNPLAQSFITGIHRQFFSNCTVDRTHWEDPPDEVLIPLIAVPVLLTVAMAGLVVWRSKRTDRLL
Test: ASSAY (VI) binding to the rat amylin receptor
Settings: for IC50: binding to rat amylin receptor, read-out: rAmylin-R bind IC50
Outline: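 This assay measured binding to the rat amylin receptor. BHK tk′ts 13 cells were transiently transfected with the rat calcitonin receptor using FuGENE® 6 (Roche), following the manufacturer's recommendations. About 48 hours after transfection, the cells were harvested and membranes were prepared from them for the binding determination.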

[1] = Table 7, rat binding selectivity, rCTR IC50 / rAmylin-R IC50
[2] = Table 7a (preferred compounds), rat binding selectivity, rCTR IC50 / rAmylin-R IC50
[3] = ratio of rCTR bind IC50 to rAmylin-R bind IC50

Row | Compound | IC50 (Table 7) | Ratio rCT/rAmylin binding [1] | Ratio rCT/rAmylin binding [2] | Ratio rCT/rAmylin binding [3]
1 | CC[C@H](C)[C@H](NC(=O)[C@H](C)NC(=O)CNC(=O)[C@H](Cc1ccccc1)NC(=O)[C@H](CC(N)=O)NC(=O)[C@@H]1CCCN1C(=O)[C@H](CO)NC(=O)[C@H](CO)NC(=O)[C@H](Cc1c[nH]cn1)NC(=O)[C@H](CCCNC(=N)N)NC(=O)[C@H](CC(C)C)NC(=O)[C@H](Cc1ccccc1)NC(=O)[C@H](CCC(=O)O)NC(=O)[C@H](C)NC(=O)[C@H](CC(C)C)NC(=O)[C@H](CCCNC(=N)N)NC(=O)[C@H](CCC(N)=O)NC(=O)[C@@H](NC(=O)[C@H](C)NC(=O)[C@@H]1CSSC[C@H](NC(=O)[C@@H](N)CCCCNC(=O)CC[C@H](NC(=O)CC[C@H](NC(=O)CCCCCCCCCCCCCCCCCCC(=O)O)C(=O)O)C(=O)O)C(=O)N[C@@H](CC(N)=O)C(=O)N[C@@H]([C@@H](C)O)C(=O)N[C@@H](C)C(=O)N[C@@H]([C@@H](C)O)C(=O)N1)[C@@H](C)O)C(=O)N1CCC[C@H]1C(=O)N[C@@H](CO)C(=O)N[C@@H](CO)C(=O)N[C@H](C(=O)N[C@@H](CC(N)=O)C(=O)N[C@H](C(=O)NCC(=O)N[C@@H](Cc1c[nH]cn1)C(=O)N[C@@H](CCC(=O)O)C(=O)N[C@H](C(=O)N[C@@H](Cc1ccc(O)cc1)C(N)=O)[C@@H](C)O)C(C)C)[C@@H](C)O [Example 104] (H-K([γGlu-γGlu-C20 diacid])CNTATCATQRLAEFLRHSSPNFGAIPSSTNVGHETY-NH2; disulfide 2-7; N-terminus assumed) | 3.14 nM | 158.8 | 158.8 | 158.8
2 | CC[C@H](C)[C@H](NC(=O)[C@H](C)NC(=O)CNC(=O)[C@H](Cc1ccccc1)NC(=O)[C@H](CC(N)=O)NC(=O)[C@@H]1CCCN1C(=O)[C@H](CO)NC(=O)[C@H](CO)NC(=O)[C@H](Cc1c[nH]cn1)NC(=O)[C@H](CCCNC(=N)N)NC(=O)[C@H](CC(C)C)NC(=O)[C@H](Cc1ccccc1)NC(=O)[C@H](Cc1c[nH]cn1)NC(=O)[C@H](C)NC(=O)[C@H](CC(C)C)NC(=O)[C@H](CCCNC(=N)N)NC(=O)[C@H](CCC(N)=O)NC(=O)[C@@H](NC(=O)[C@H](C)NC(=O)[C@@H]1CSSC[C@H](NC(=O)[C@@H](N)CCCCNC(=O)COCCOCCNC(=O)CC[C@H](NC(=O)CCCCCCCCCCCCCCCCCCC(=O)O)C(=O)O)C(=O)N[C@@H](CC(N)=O)C(=O)N[C@@H]([C@@H](C)O)C(=O)N[C@@H](C)C(=O)N[C@@H]([C@@H](C)O)C(=O)N1)[C@@H](C)O)C(=O)N1CCC[C@H]1C(=O)N[C@@H](CO)C(=O)N[C@@H](CO)C(=O)N[C@H](C(=O)N1CCC[C@H]1C(=O)N[C@H](C(=O)NCC(=O)N[C@@H](CO)C(=O)N[C@@H](CC(N)=O)C(=O)N[C@H](C(=O)N[C@@H](Cc1ccc(O)cc1)C(N)=O)[C@@H](C)O)C(C)C)[C@@H](C)O [Example 61] (H-K([AEEA-γGlu-C20 diacid])CNTATCATQRLAHFLRHSSPNFGAIPSSTPVGSNTY-NH2; disulfide 2-7 (inferred)) | 0.842 nM | 39.7 | 39.7 | 39.7
3 | CC[C@H](C)[C@H](NC(=O)[C@H](C)NC(=O)CNC(=O)[C@H](Cc1ccccc1)NC(=O)[C@H](CC(N)=O)NC(=O)[C@@H]1CCCN1C(=O)[C@H](CO)NC(=O)[C@H](CO)NC(=O)[C@H](Cc1c[nH]cn1)NC(=O)[C@H](CCCNC(=N)N)NC(=O)[C@H](CC(C)C)NC(=O)[C@H](Cc1ccccc1)NC(=O)[C@H](CC(N)=O)NC(=O)[C@H](C)NC(=O)[C@H](CC(C)C)NC(=O)[C@H](CCCNC(=N)N)NC(=O)[C@H](CCC(N)=O)NC(=O)[C@@H](NC(=O)[C@H](C)NC(=O)[C@@H]1CSSC[C@H](NC(=O)[C@@H](N)CCCCNC(=O)CC[C@H](NC(=O)CCCCCCCCCCCCCCC(=O)O)C(=O)O)C(=O)N[C@@H](CC(N)=O)C(=O)N[C@@H]([C@@H](C)O)C(=O)N[C@@H](C)C(=O)N[C@@H]([C@@H](C)O)C(=O)N1)[C@@H](C)O)C(=O)N1CCC[C@H]1C(=O)N[C@@H](CO)C(=O)N[C@@H](CO)C(=O)N[C@H](C(=O)N[C@@H](CC(N)=O)C(=O)N[C@H](C(=O)NCC(=O)N[C@@H](Cc1c[nH]cn1)C(=O)N[C@@H](CC(N)=O)C(=O)N[C@H](C(=O)N[C@@H](Cc1ccc(O)cc1)C(N)=O)[C@@H](C)O)C(C)C)[C@@H](C)O [Example 111] | 1.24 nM | 326.8 | 326.8 | 326.8
4 | CC[C@H](C)[C@H](NC(=O)[C@H](C)NC(=O)CNC(=O)[C@H](Cc1ccccc1)NC(=O)[C@H](CC(N)=O)NC(=O)[C@@H]1CCCN1C(=O)[C@H](CO)NC(=O)[C@H](CO)NC(=O)[C@H](Cc1c[nH]cn1)NC(=O)[C@H](CCCNC(=N)N)NC(=O)[C@H](CC(C)C)NC(=O)[C@H](Cc1ccccc1)NC(=O)[C@H](CC(N)=O)NC(=O)[C@H](C)NC(=O)[C@H](CC(C)C)NC(=O)[C@H](CCCNC(=N)N)NC(=O)[C@H](CCC(N)=O)NC(=O)[C@@H](NC(=O)[C@H](C)NC(=O)[C@@H]1CSSC[C@H](NC(=O)[C@H](CCCNC(=N)N)NC(=O)CNC(=O)CC[C@H](NC(=O)CCCCCCCCCCCCCCCCCCC(=O)O)C(=O)O)C(=O)N[C@@H](CC(N)=O)C(=O)N[C@@H]([C@@H](C)O)C(=O)N[C@@H](C)C(=O)N[C@@H]([C@@H](C)O)C(=O)N1)[C@@H](C)O)C(=O)N1CCC[C@H]1C(=O)N[C@@H](CO)C(=O)N[C@@H](CO)C(=O)N[C@H](C(=O)N[C@@H](CC(N)=O)C(=O)N[C@H](C(=O)NCC(=O)N[C@@H](CO)C(=O)N[C@@H](Cc1c[nH]cn1)C(=O)N[C@H](C(=O)N[C@@H](Cc1ccc(O)cc1)C(N)=O)[C@@H](C)O)C(C)C)[C@@H](C)O [Example 47] ({C20 diacid-γGlu}-GRCNTATCATQRLANFLRHSSPNFGAIPSSTNVGSHTY-NH2; disulfide 3-8) | 0.203 nM | 84.3 | 84.3 | 84.3
5 | CC[C@H](C)[C@H](NC(=O)[C@H](C)NC(=O)CNC(=O)[C@H](Cc1ccccc1)NC(=O)[C@H](CC(N)=O)NC(=O)[C@@H]1CCCN1C(=O)[C@H](CO)NC(=O)[C@H](CO)NC(=O)[C@H](Cc1c[nH]cn1)NC(=O)[C@H](CCCNC(=N)N)NC(=O)[C@H](CC(C)C)NC(=O)[C@H](Cc1ccccc1)NC(=O)[C@H](CC(N)=O)NC(=O)[C@H](C)NC(=O)[C@H](CC(C)C)NC(=O)[C@H](CCCNC(=N)N)NC(=O)[C@H](CCC(N)=O)NC(=O)[C@@H](NC(=O)[C@H](C)NC(=O)[C@@H]1CSSC[C@H](NC(=O)[C@H](CCCCN)NC(=O)COCCOCCNC(=O)COCCOCCNC(=O)CC[C@H](NC(=O)CCCCCCCCCCCCCCCCCCC(=O)O)C(=O)O)C(=O)N[C@@H](CC(N)=O)C(=O)N[C@@H]([C@@H](C)O)C(=O)N[C@@H](C)C(=O)N[C@@H]([C@@H](C)O)C(=O)N1)[C@@H](C)O)C(=O)N1CCC[C@H]1C(=O)N[C@@H](CO)C(=O)N[C@@H](CO)C(=O)N[C@H](C(=O)N[C@@H](CC(N)=O)C(=O)N[C@H](C(=O)NCC(=O)N[C@@H](CO)C(=O)N[C@@H](CC(N)=O)C(=O)N[C@H](C(=O)N[C@@H](Cc1ccc(O)cc1)C(N)=O)[C@@H](C)O)C(C)C)[C@@H](C)O [Example 24] | 3.01 nM | 116.3 | 116.3 | 116.3
6 | CC[C@H](C)[C@H](NC(=O)[C@H](C)NC(=O)CNC(=O)[C@H](Cc1ccccc1)NC(=O)[C@H](CC(N)=O)NC(=O)[C@@H]1CCCN1C(=O)[C@H](CO)NC(=O)[C@H](CO)NC(=O)[C@H](Cc1c[nH]cn1)NC(=O)[C@H](CCCNC(=N)N)NC(=O)[C@H](CC(C)C)NC(=O)[C@H](Cc1ccccc1)NC(=O)[C@H](CC(N)=O)NC(=O)[C@H](C)NC(=O)[C@H](CC(C)C)NC(=O)[C@H](CCCNC(=N)N)NC(=O)[C@H](CCC(N)=O)NC(=O)[C@@H](NC(=O)[C@H](C)NC(=O)[C@@H]1CSSC[C@H](NC(=O)[C@@H](N)CCCCNC(=O)CC[C@H](NC(=O)CCCCCCCCCCCCCCCCC(=O)O)C(=O)O)C(=O)N[C@@H](CC(N)=O)C(=O)N[C@@H]([C@@H](C)O)C(=O)N[C@@H](C)C(=O)N[C@@H]([C@@H](C)O)C(=O)N1)[C@@H](C)O)C(=O)N1CCC[C@H]1C(=O)N[C@@H](CO)C(=O)N[C@@H](CO)C(=O)N[C@H](C(=O)N[C@@H](CC(N)=O)C(=O)N[C@H](C(=O)NCC(=O)N[C@@H](Cc1c[nH]cn1)C(=O)N[C@@H](CC(N)=O)C(=O)N[C@H](C(=O)N[C@@H](Cc1ccc(O)cc1)C(N)=O)[C@@H](C)O)C(C)C)[C@@H](C)O [Example 113] | 1.17 nM | 40.3 | 40.3 | 40.3
